Reference: patent US20080221193A1, “3-AMINO CHROMANE DERIVATIVES” (Wyeth, priority 2006, published 2008)

Experiments:
h5-HT Transporter = h5-HT Transporter (Homo sapiens, UniProt P31645); assay: h5-HT Transporter Function (Table 1); format: biochemical
human 5-HT1A receptors [1] = molecular target: T1, human 5-HT1A receptors (Homo sapiens, UniProt P08908); assay: 35S-GTPγS binding assay, membranes containing cloned human 5-HT1A receptors; format: biochemical; details: for IC50: read-out: 5-HT1A Function GTPγS IC50
T1 construct: expressed in transfected cells; host or cells: CHO cells, stably transfected
T1 sequence (P08908 1-422): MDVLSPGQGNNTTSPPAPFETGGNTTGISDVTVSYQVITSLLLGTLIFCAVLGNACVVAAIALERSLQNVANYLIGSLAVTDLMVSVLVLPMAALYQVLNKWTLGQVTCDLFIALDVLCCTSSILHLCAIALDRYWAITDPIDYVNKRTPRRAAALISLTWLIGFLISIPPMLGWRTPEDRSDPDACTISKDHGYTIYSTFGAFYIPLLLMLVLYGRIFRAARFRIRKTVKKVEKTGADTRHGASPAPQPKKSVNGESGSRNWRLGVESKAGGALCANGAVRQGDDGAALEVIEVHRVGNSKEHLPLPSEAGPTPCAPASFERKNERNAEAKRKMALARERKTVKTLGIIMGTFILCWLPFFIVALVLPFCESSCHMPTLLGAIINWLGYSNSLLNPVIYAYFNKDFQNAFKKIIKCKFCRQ
Description: (§1) The agonist or antagonist activity at 5-HT1A receptors was established by using two different assays. The ^35S-GTPγS binding assay similar to that used by Lazareno and Birdsall (Br. J. Pharmacol., 1993, 109: 1120) was used to determine the test compound's ability to affect the binding of ^35S-GTPγS to membranes containing cloned human 5-HT1A receptors. Agonists produce an increase in binding whereas antagonists produce no increase but rather reverse the effects of the standard agonist 8-OH-DPAT. The test compound's maximum stimulatory effect is represented as the Emax, while its potency is defined by the EC50. The test compound's maximum inhibitory effect is represented as the Imax, while its potency is defined by the IC50. The second assay measured cAMP accumulation upon binding of the ligand to the 5-HT1A receptor. Antagonists block the effect of the standard agonist 8-OH-DPAT resulting in an increase in cAMP accumulation while agonists have the reverse effect. The test compound's maximum stimulatory or inhibitory effect is represented as the Emax while its potency is defined by either IC50 for an antagonist or EC50 for an agonist. [^3H]-8-OH-DPAT was used to determine maximum agonist or antagonist response in both functional assays.

h5HT1a receptor = molecular target: T2, h5HT1a receptor (Homo sapiens, UniProt P08908); assay: cAMP RIA in CHO cells stably transfected with the h5HT1a receptor; format: cell-based; details: for EC50: agonist, forskolin-stimulated cAMP, read-out: 5-HT1A Function cAMP EC50; for IC50: antagonist, reversal of agonist 8-OH-DPAT, read-out: 5-HT1A Function cAMP IC50
T2 construct: expressed in transfected cells; host or cells: CHO cells, stably transfected
T2 sequence (P08908 1-422): T1 sequence (P08908 1-422)
Description: as §1
Stabily transfected CHO cells were grown in DMEM containing 10% heat inactivated FBS and non-essential amino acids. The cells were plated at a density of 10(6) cells per well in a 24 well plate and incubated for 2 days in a CO2 incubator. On the second day, the media was replaced with 0.5 ml treatment buffer (DMEM+25 mM HEPES, 5 mM theophylline, 10 uM pargyline) and incubated 10 minutes at 37° C.
Wells were treated with forskolin (1 μM final conc) followed immediately by test compound (0.1 and 1 uM for initial screen) and incubated for an additional 10 min at 37° C. The reaction was terminated by removal of the media and addition of 0.5 ml ice cold assay buffer (supplied in RIA kit). Plates were stored at −20° C. prior to assessment of cAMP formation by RIA.
Compounds shown to have no agonist activities were further analyzed for ability to reverse agonist activity. In separate experiments, 6 concentrations of antagonist were preincubated for 20 minutes prior to the addition of agonist and forskolin. Cells were harvested as described. The cAMP kit was supplied by Amersham and the RIA was performed as per kit instructions.

human 5-HT1A receptors [2] = molecular target: T1, human 5-HT1A receptors; assay: 8-OH-DPAT binding in CHO cells stably transfected with human 5HT1a receptor; details: displacement of [3H]8-OH-DPAT, CHO cells with human 5-HT1A; read-out: 5-HT1A Receptor Affinity Ki
Description: High affinity for the serotonin 5-HT1A receptor was established by testing the claimed compound's ability to displace [^3H] 8-OH-DPAT (dipropylaminotetralin) from the 5-HT1A serotonin receptor following a modification of the procedure of Hall et al., (J. Neurochem., 1985, 44: 1685) which utilizes CHO cells stably transfected with human 5-HT1A receptors.
Stabily transfected CHO cells were grown in DMEM containing 10% heat inactivated FBS and non-essential amino acids. Cells were scraped off the plate, transferred to centrifuge tubes, and washed twice by centrifugation (2000 rpm for 10 min., 4° C.) in buffer (50 mM Tris pH 7.5). The resulting pellets were aliquoted and placed at −80° C. On day of assay, the cells were thawed on ice, and resuspended in buffer. The binding assay was performed in a 96 well microtiter plate in a total volume of […].
Non-specific binding was determined in the presence of […] 5HT, final ligand concentration is 1.5 nM. Following a 30 minute incubation at room temperature, the reaction was terminated by the addition of ice cold buffer and rapid filtration through a GF/B filter presoaked for 30 minutes in 0.5% PEI. Compounds were initially tested in a single point assay to determine percent inhibition at […]. Subsequently, Ki values were determined for compounds defined to be active.

Chain of h5-HT Transporter (P31645 whole entry): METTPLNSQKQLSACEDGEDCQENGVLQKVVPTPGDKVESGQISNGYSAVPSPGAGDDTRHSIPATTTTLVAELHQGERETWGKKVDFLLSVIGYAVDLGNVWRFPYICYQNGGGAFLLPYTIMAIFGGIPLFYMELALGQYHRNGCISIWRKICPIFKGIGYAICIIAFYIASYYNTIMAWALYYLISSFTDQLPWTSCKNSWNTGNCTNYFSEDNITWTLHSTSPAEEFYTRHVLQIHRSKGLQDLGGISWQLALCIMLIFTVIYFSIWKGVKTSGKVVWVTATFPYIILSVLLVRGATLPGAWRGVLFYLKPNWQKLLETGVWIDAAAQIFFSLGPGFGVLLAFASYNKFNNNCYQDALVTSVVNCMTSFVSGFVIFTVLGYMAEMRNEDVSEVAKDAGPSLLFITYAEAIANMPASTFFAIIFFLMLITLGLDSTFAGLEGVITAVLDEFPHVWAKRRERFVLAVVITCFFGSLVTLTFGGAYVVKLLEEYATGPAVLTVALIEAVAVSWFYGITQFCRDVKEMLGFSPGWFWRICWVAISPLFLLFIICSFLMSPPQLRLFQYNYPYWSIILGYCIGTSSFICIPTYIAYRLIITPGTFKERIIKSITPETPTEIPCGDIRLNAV

Molecule	IC50 (h5-HT Transporter) [µM]	EC50 (human 5-HT1A receptors [1]; agonist potency, read-out: 5-HT1A Function GTPγS EC50) [µM]	EC50 (h5HT1a receptor) [µM]	Ki (human 5-HT1A receptors [2]) [µM]	IC50 (human 5-HT1A receptors [1]) [µM]	IC50 (h5HT1a receptor) [µM]
COc1ccc(C(N)=O)c2c1OC[C@H](NCCCc1c[nH]c3ccc(F)cc13)C2 [Example 1, (3R)-3-[3-(5-fluoro-1H-indol-3-yl)propyl]amino-8-methoxychromane-5-carboxamide]	0.234	0.489	0.23	0.113	–	–
COc1ccc(C(N)=O)c2c1OC[C@H](N(CCCc1c[nH]c3ccc(F)cc13)C1CCC1)C2 [Example 2, (3R)-3-{cyclobutyl[3-(5-fluoro-1H-indol-3-yl)propyl]amino}-8-methoxychromane-5-carboxamide]	0.0132	–	–	0.0104	0.119	0.0921
CCOc1ccc(C(N)=O)c2c1OC[C@H](N(CCCc1c[nH]c3ccc(F)cc13)C1CCC1)C2 [Example 3, (3R)-3-{cyclobutyl[3-(5-fluoro-1H-indol-3-yl)propyl]amino}-8-ethoxychromane-5-carboxamide]	0.329	–	–	0.108	5.03	0.768
CCCOc1ccc(C(N)=O)c2c1OC[C@H](N(CCCc1c[nH]c3ccc(F)cc13)C1CCC1)C2 [Example 4, (3R)-3-{cyclobutyl[3-(5-fluoro-1H-indol-3-yl)propyl]amino}-8-propoxychromane-5-carboxamide]	0.45	–	0.151	0.0701	0.684	–
CC(C)Oc1ccc(C(N)=O)c2c1OC[C@H](N(CCCc1c[nH]c3ccc(F)cc13)C1CCC1)C2 [Example 5, (3R)-3-{cyclobutyl[3-(5-fluoro-1H-indol-3-yl)propyl]amino}-8-isopropoxychromane-5-carboxamide]	0.214	–	0.118	0.0353	3.15	–
NC(=O)c1ccc(O)c2c1C[C@@H](N(CCCc1c[nH]c3ccc(F)cc13)C1CCC1)CO2 [Example 6, (3R)-3-{cyclobutyl[3-(5-fluoro-1H-indol-3-yl)propyl]amino}-8-hydroxychromane-5-carboxamide]	0.347	–	0.312	0.136	2.55	–
COc1ccc(C(N)=O)c2c1OC[C@H](N(CCCc1c[nH]c3ccc(F)cc13)CCC(F)(F)F)C2 [Example 7, (3R)-3-{3,3,3-trifluoropropyl[3-(5-fluoro-1H-indol-3-yl)propyl]amino}-8-methoxychromane-5-carboxamide]	2.68	–	–	0.636	–	–
COc1ccc(C(N)=O)c2c1OC[C@H](N(CCCc1c[nH]c3ccc(F)cc13)CC1CC1)C2 [Example 8, (3R)-3-{cyclopropylmethyl[3-(5-fluoro-1H-indol-3-yl)propyl]amino}-8-methoxychromane-5-carboxamide]	0.0453	–	–	0.0255	0.442	0.439
CCCN(CCCc1c[nH]c2ccc(F)cc12)[C@H]1COc2c(OC)ccc(C(N)=O)c2C1 [Example 10, (3R)-3-{propyl[3-(5-fluoro-1H-indol-3-yl)propyl]amino}-8-methoxychromane-5-carboxamide]	0.008	–	0.186	0.0205	0.321	–
CCCCN(CCCc1c[nH]c2ccc(F)cc12)[C@H]1COc2c(OC)ccc(C(N)=O)c2C1 [Example 11, (3R)-3-{butyl[3-(5-fluoro-1H-indol-3-yl)propyl]amino}-8-methoxychromane-5-carboxamide]	0.279	–	–	0.0987	3.03	0.375
COc1ccc(C(N)=O)c2c1OC[C@H](N(CCCc1c[nH]c3ccc(F)cc13)CCCC(F)(F)F)C2 [Example 12, (3R)-3-{4,4,4-trifluorobutyl[3-(5-fluoro-1H-indol-3-yl)propyl]amino}-8-methoxychromane-5-carboxamide]	2.58	–	–	–	–	–
COc1ccc(C(N)=O)c2c1OC[C@H](N(CCCc1c[nH]c3ccc(F)cc13)CC(C)C)C2 [Example 13, (3R)-3-{2-methylpropyl[3-(5-fluoro-1H-indol-3-yl)propyl]amino}-8-methoxychromane-5-carboxamide]	0.339	–	–	0.214	2.95	–
CCN(CCCc1c[nH]c2ccc(F)cc12)[C@H]1COc2c(OC)ccc(C(N)=O)c2C1 [Example 14, (3R)-3-{ethyl[3-(5-fluoro-1H-indol-3-yl)propyl]amino}-8-methoxychromane-5-carboxamide]	0.00262	–	–	0.402	1.37	–
COc1ccc(C(N)=O)c2c1OC[C@H](N(C)CCCc1c[nH]c3ccc(F)cc13)C2 [Example 15, (3R)-3-{methyl[3-(5-fluoro-1H-indol-3-yl)propyl]amino}-8-methoxychromane-5-carboxamide]	0.16	–	–	1.7	–	–
CNC(=O)c1ccc(OC)c2c1C[C@@H](N(CCCc1c[nH]c3ccc(F)cc13)CCC(F)(F)F)CO2 [Example 17, (3R)-3-{3,3,3-trifluoropropyl[3-(5-fluoro-1H-indol-3-yl)propyl]amino}-8-methoxychromane-5-methylcarboxamide]	5.54	–	–	0.662	–	–
COc1ccc(C(N)=O)c2c1OC[C@H](N(CCCc1c[nH]c3c(F)cc(F)cc13)C1CCC1)C2 [Example 18, (3R)-3-{cyclobutyl[3-(5,7-difluoro-1H-indol-3-yl)propyl]amino}-8-methoxy-chromane-5-carboxamide]	0.11	–	–	0.0613	–	0.0942
COc1ccc(C(N)=O)c2c1OC[C@H](N(CCCC1CNc3ccc(F)cc31)C1CCC1)C2 (stereo partly drawn) [Example 19, (3R)-3-{cyclobutyl[3-(5-fluoro-1H-indolin-3-yl)propyl]amino}-8-methoxy-chromane-5-carboxamide]	0.407	–	–	0.0436	–	0.0999
CCSc1ccc(C(N)=O)c2c1OC[C@H](N(CCCc1c[nH]c3ccc(F)cc13)C1CCC1)C2 [Example 23, (3R)-3-{cyclobutyl[3-(5-fluoro-1H-indol-3-yl)propyl]amino}-8-(ethylthio)chromane-5-carboxamide]	0.831	–	–	0.138	–	0.137
CN(C)c1ccc(C(N)=O)c2c1OC[C@H](N(CCCc1c[nH]c3ccc(F)cc13)C1CCC1)C2 [Example 24, (3R)-3-{cyclobutyl[3-(5-fluoro-1H-indol-3-yl)propyl]amino}-8-(dimethylamino) chromane-5-carboxamide]	0.125	–	–	0.0727	–	–
(3R)-3-{2-isopropyl[3-(5-fluoro-1H-indol-3-yl)propyl]amino}-8-methoxychromane-5-carboxamide [Example 9]	–	–	–	0.515	–	–
